# Test results as given in patent US8772199B2, “Herbicidal compositions for tolerant or resistant maize crops” (Bayer Intellectual Property GmbH, priority 1998, dated 2014).
# How the values were obtained:
# Format in all cases: in vivo
# [1] = system: Mais LL (Liberty-Link-Mais, maize tolerant or resistant to glufosinate-ammonium); test: Field trial, damage to transgenic maize (tolerance by crop plants)
# Procedure: (§1) Transgenic maize plants with a resistance to one or more herbicides (A) together with typical weed plants were grown in the open on 2×5 m plots under natural field conditions; alternatively, weed infestation occurred naturally when the maize plants were grown.
# The damage to, and the development of, all aerial parts of the plants was recorded.
# Abbreviations generally used in the tables: • g of a.s./ha=gram of active substance (100% active substance) per hectare • E^A=Total of the herbicidal effects of the individual applications • E^C Colby's expected value (cf. scoring in Table 1) • “Mais LL”=®Liberty-Link-Mais, maize which is tolerant or resistant to glufosinate-ammonium, […]
# Digitaria sanguinalis = test: Field trial with maize, herbicidal action; settings: 300 g of a.s./ha; application 5-6-leaf stage; scoring 11 days after application
# Procedure: as §1
# (§2) […] The damage to, and the development of, all aerial parts of the plants was recorded. Scoring was done on the basis of a percentage sale (100% action=all plants destroyed; 50% action=50% of the plants and green parts of the plants destroyed; 0% action=no recognizable effect=like control plot. The mean of the score values of in each case 4 plots was calculated.
# Panicum dichotomiflorum = test: Field trial with maize, herbicidal action; settings: 300 g of a.s./ha; application 5-6-leaf stage; scoring 11 days after application
# Procedure: as §1, §2
# Portulaca oleracea = test: Field trial with maize, herbicidal action
# Procedure: as §1, §2
# Avena fatua = test: Field trial with maize, herbicidal action; settings: application 2- to 4-leaf stage, scoring 28 days after application
# Procedure: as §1
# (§3) 2, 4, 6 and 8 weeks after the application, the herbicidal activity of the active substances or active substance mixtures was scored visually with reference to the treated plots in comparison to untreated control plots. The damage to, and the development of, all aerial parts of the plants was recorded. Scoring was done on the basis of a percentage sale (100% action=all plants destroyed; 50% action=50% of the plants and green parts of the plants destroyed; 0% action=no recognizable effect=like control plot. The mean of the score values of in each case 4 plots was calculated.
# Euphorbia heterophylla = test: Field trial with maize, herbicidal action; settings: for Herbicidal action (%) against EPHHL: application 4-leaf stage, scoring 6 weeks after application; for Herbicidal action (%) against Euphorbia heterophylla: application 6-leaf stage, scoring 44 days after application
# Procedure: as §1, §2
# Convolvulus arvensis = test: Field trial with maize, herbicidal action; settings: application 3- to 4-leaf stage, scoring 28 days after application
# Procedure: as §1, §3
# Commelina benghalensis = test: Field trial with maize, herbicidal action; settings: application 3-leaf stage, scoring 42 days after application
# Procedure: as §1, §3
# Sorghum bicolor = test: Field trial with maize, herbicidal action; settings: pre-emergence application, scoring 46 days after pre-emergence application
# Procedure: as §1, §3
# Echinochloa crus-galli = test: Field trial with maize, herbicidal action
# Procedure: as §1, §2
# Sorghum halepense = test: Field trial with maize, herbicidal action; settings: application 4-leaf stage, scoring 28 days after application
# Procedure: as §1, §3
# Brachiaria plantaginea = test: Field trial with maize, herbicidal action; settings: 1500 g of a.s./ha; application 2-leaf stage; scoring 28 days after application
# Procedure: as §1, §3
# Galium aparine = test: Field trial with maize, herbicidal action; settings: application 3- to 4-leaf stage, scoring 24 days after application
# Procedure: as §1, §2
# Fagopyrum esculentum = test: Field trial with maize, herbicidal action; settings: application 3- to 4-leaf stage, scoring 24 days after application
# Procedure: as §1, §2
# Sinapis arvensis = test: Field trial with maize, herbicidal action; settings: 15 g of a.s./ha; application 4- to 5-leaf stage; scoring 28 days after application
# Procedure: as §1, §3
smiles,measurement,setting,value
"COc1c(Cl)ccc(Cl)c1C(=O)O [(B3.2), 3,6-dichloro-o-anisic acid]",Damage to Mais LL in %,[1]; in vivo,0%
same,Herbicidal action (%) against Digitaria sanguinalis,Digitaria sanguinalis,88%
same,Herbicidal action (%) against Panicum dichotomiflorum,Panicum dichotomiflorum,0%
"N#Cc1cc(Br)c(O)c(Br)c1 [(B3.1), 3,5-dibromo-4-hydroxybenzonitrile]",Herbicidal action (%) against Portulaca oleracea,"Portulaca oleracea; 360 g of a.s./ha, application 2- to 4-leaf stage, scoring 28 days after application",25%
same,Herbicidal action (%) against Portulaca oleracea,"Portulaca oleracea; 360 g of a.s./ha, application 6-leaf stage, scoring 26 days after application",25%
same,Herbicidal action (%) against Avena fatua,Avena fatua; 360 g of a.s./ha,10%
"CS(=O)(=O)c1ccc(C(=O)C2C(=O)CCCC2=O)c([N+](=O)[O-])c1 [(B1.16), 2-(4-mesyl-2-nitrobenzoyl)cyclohexane-1,3-dione]",Damage to Mais LL in %,"[1]; 50 g of a.s./ha, application 4-leaf stage",0%
same,Damage to Mais LL in %,"[1]; 100 g of a.s./ha, application 4-leaf stage",0%
same,Damage to Mais LL in %,"[1]; 150 g of a.s./ha, application 4-leaf stage",0%
same,Herbicidal action (%) against EPHHL,Euphorbia heterophylla; 50 g of a.s./ha,60%
same,Herbicidal action (%) against EPHHL,Euphorbia heterophylla; 100 g of a.s./ha,58%
same,Herbicidal action (%) against EPHHL,Euphorbia heterophylla; 150 g of a.s./ha,70%
"CCCCCCCCSC(=O)Oc1cc(Cl)nnc1-c1ccccc1 [(B2.2), 6-chloro-3-phenylpyridazin-4-yl S-octyl thiocarbonate]",Herbicidal action (%) against Convolvulus arvensis,Convolvulus arvensis; 900 g of a.s./ha,40%
"CCc1cccc(CC)c1N(COC)C(=O)CCl [(B1.6), 2-chloro-N-(2,6-diethylphenyl)-N-(methoxymethyl)acetamide]",Mais LL,"[1]; 1920 g of a.s./ha, application 3-leaf stage, Table 11, head names no quantity",0
same,Herbicidal action (%) against Commelina benghalensis,Commelina benghalensis; 1920 g of a.s./ha,37%
"CCc1cnc(C2=NC(C)(C(C)C)C(=O)N2)c(C(=O)O)c1 (centres unmarked) [(A3.2), imazethapyr]",Mais LL,[1]; in vivo,0
same,Herbicidal action (%) against Commelina benghalensis,Commelina benghalensis; 100 g of a.s./ha,73%
"CCNc1nc(Cl)nc(NC(C)(C)C#N)n1 [(B1.1), 2-(4-chloro-6-ethylamino-1,3,5-triazin-2-ylamino)-2-methylpropionitrile]",Herbicidal action (%) against Portulaca oleracea,"Portulaca oleracea; 2242 g of a.s./ha, application 2- to 4-leaf stage, scoring 28 days after application",45%
same,Herbicidal action (%) against Avena fatua,Avena fatua; 2242 g of a.s./ha,35%
"CS(=O)(=O)c1cc(C(F)(F)F)ccc1C(=O)c1cnoc1C1CC1 [(B2.5), (5-cyclopropyl-4-isoxazolyl)[2-(methylsulfonyl)-4-(trifluoromethyl)phenyl]-methasone]",Herbicidal action (%) against Sorghum bicolor,Sorghum bicolor; 25 g of a.s./ha,20%
same,Herbicidal action (%) against Sorghum bicolor,Sorghum bicolor; 50 g of a.s./ha,40%
same,Herbicidal action (%) against Sorghum bicolor,Sorghum bicolor; 100 g of a.s./ha,75%
"CS(=O)(=O)c1ccc(C(=O)C2C(=O)CCCC2=O)c(Cl)c1 [(B1.14), 2-(2-chloro-4-mesylbenzoyl)cyclohexane-1,3-dione]",Damage to Mais LL in %,"[1]; 200 g of a.s./ha, application 6-leaf stage",0%
same,Damage to Mais LL in %,"[1]; 300 g of a.s./ha, application 6-leaf stage",0%
same,Damage to Mais LL in %,"[1]; 400 g of a.s./ha, application 6-leaf stage",0%
same,Herbicidal action (%) against Euphorbia heterophylla,Euphorbia heterophylla; 200 g of a.s./ha,60%
same,Herbicidal action (%) against Euphorbia heterophylla,Euphorbia heterophylla; 300 g of a.s./ha,68%
same,Herbicidal action (%) against Euphorbia heterophylla,Euphorbia heterophylla; 400 g of a.s./ha,75%
Cc1ccn2nc(S(=O)(=O)Nc3c(F)cccc3F)nc2n1 [(B2.8)],Herbicidal action (%) against Echinochloa crus-galli,"Echinochloa crus-galli; 50 g of a.s./ha, application 3-leaf stage, scoring 21 days after application",40%
same,Herbicidal action (%) against Echinochloa crus-galli,"Echinochloa crus-galli; 70 g of a.s./ha, application 3-leaf stage, scoring 21 days after application",65%
"O=C(O)COc1ccc(Cl)cc1Cl [(B3.3), 2,4-dichlorophenoxyacetic acid]",Herbicidal action (%) against Convolvulus arvensis,Convolvulus arvensis; 500 g of a.s./ha,20%
"O=C(Nc1nc(OC(F)F)cc(OC(F)F)n1)NS(=O)(=O)c1ccccc1C(=O)O [(B1.11), 2-[4,6-bis(difluoromethoxy)pyrimidin-2-ylcarbamoylsulfamoyl]benzoic acid]",Herbicidal action (%) against Sorghum halepense,Sorghum halepense; 10 g of a.s./ha,62%
same,Herbicidal action (%) against Sorghum halepense,Sorghum halepense; 20 g of a.s./ha,93%
"O=C(O)c1nc(Cl)ccc1Cl [(B3.4), 3,6-dichloro-2-pyridinecarboxylic acid]",Mais LL,"[1]; 100 g of a.s./ha, application 3-leaf stage, Table 14, head names no quantity",0
same,Herbicidal action (%) against Echinochloa crus-galli,"Echinochloa crus-galli; 100 g of a.s./ha, application 3-leaf stage, scoring 21 days after application",15%
"Cc1cc(Cl)ccc1OCC(=O)O [(B3.9), (4-chloro-2-methylphenoxy)acetic acid]",Herbicidal action (%) against Convolvulus arvensis,Convolvulus arvensis; 500 g of a.s./ha,60%
"CCc1cccc(C)c1N(C(=O)CCl)C(C)COC (centres unmarked) [(B1.5), 2-chloro-N-(2-ethyl-6-methylphenyl)-N-(2-methoxy-1-methylethyl)-acetamide]",Herbicidal action (%) against Portulaca oleracea,"Portulaca oleracea; 1680 g of a.s./ha, application 2- to 4-leaf stage, scoring 28 days after application",35%
same,Herbicidal action (%) against Brachiaria plantaginea,Brachiaria plantaginea,70%
same,Herbicidal action (%) against Avena fatua,Avena fatua; 1680 g of a.s./ha,40%
"CC(C)N(C(=O)COc1nnc(C(F)(F)F)s1)c1ccc(F)cc1 [(B1.13), 4′-fluoro-N-isopropyl-2-(5-trifluoromethyl-1,3,4-thiadiazol-2-yloxy)acetanilide]",Herbicidal action (%) against Echinochloa crus-galli,"Echinochloa crus-galli; 125 g of a.s./ha, application 3-leaf stage, scoring 28 days after application",25%
same,Herbicidal action (%) against Echinochloa crus-galli,"Echinochloa crus-galli; 250 g of a.s./ha, application 3-leaf stage, scoring 28 days after application",30%
same,Herbicidal action (%) against Echinochloa crus-galli,"Echinochloa crus-galli; 500 g of a.s./ha, application 3-leaf stage, scoring 28 days after application",55%
"COc1nc(NC(=O)NS(=O)(=O)c2ccccc2C(F)(F)F)nc(C(F)(F)F)n1 [(B3.8), N-[[[4-methoxy-6-(trifluoromethyl)-1,3,5-triazin-2-yl)amino]-carbonyl]-2-(trifluoromethyl)benzenesulfonamide]",Herbicidal action (%) against Galium aparine,Galium aparine; 15 g of a.s./ha,45%
same,Herbicidal action (%) against Galium aparine,Galium aparine; 30 g of a.s./ha,65%
same,Herbicidal action (%) against Galium aparine,Galium aparine; 60 g of a.s./ha,85%
same,Herbicidal action (%) against Fagopyrum esculentum,Fagopyrum esculentum; 15 g of a.s./ha,30%
same,Herbicidal action (%) against Fagopyrum esculentum,Fagopyrum esculentum; 30 g of a.s./ha,60%
same,Herbicidal action (%) against Fagopyrum esculentum,Fagopyrum esculentum; 60 g of a.s./ha,78%
"COc1nc(C)nc(NC(=O)NS(=O)(=O)c2ccsc2C(=O)O)n1 [(B3.6), 3-[[[[(4-methoxy-6-methyl-1,3,5-triazin-2-yl)amino]carbonyl]amino]sulfonyl]-2-thiophenecarboxylic acid]",Herbicidal action (%) against Sinapis arvensis,Sinapis arvensis,73%
"CCOCN(C(=O)CCl)c1c(C)cccc1CC [(B1.4), 2-chloro-N-(ethoxymethyl)-N-(2-ethyl-6-methylphenyl)acetamide]",Herbicidal action (%) against Echinochloa crus-galli,"Echinochloa crus-galli; 375 g of a.s./ha, application 3- to 4-leaf stage, scoring 42 days after application",10%
same,Herbicidal action (%) against Echinochloa crus-galli,"Echinochloa crus-galli; 750 g of a.s./ha, application 3- to 4-leaf stage, scoring 42 days after application",40%
same,Herbicidal action (%) against Echinochloa crus-galli,"Echinochloa crus-galli; 1500 g of a.s./ha, application 3- to 4-leaf stage, scoring 42 days after application",45%
"COCC(C)N(C(=O)CCl)c1c(C)csc1C (centres unmarked) [(B1.12), 2-chloro-N-(2,4-dimethyl-3-thienyl)-N-(2-methoxy-1-methylethyl)acetamide]",Herbicidal action (%) against Convolvulus arvensis,Convolvulus arvensis; 900 g of a.s./ha,30%
